Data reported in the NIST ThermoML archive (doi:10.1016/j.jct.2010.04.020).

How the values were obtained:
[1] = for mass density: 101.33 kPa, Liquid, Vibrating tube method; for Triple point temperature: Crystal
[2] = Molar enthalpy of transition or fusion; conditions: Crystal; DSC

CCCC[n+]1cccc2ccccc21.O=S(=O)([N-]S(=O)(=O)C(F)(F)F)C(F)(F)F [1-butylquinolinium bis((trifluoromethyl)sulfonyl)amide]
[1]
Conditions | Triple point temperature [K] | mass density [kg/m3]
333.15 K | – | 1416.26
343.15 K | – | 1407.38
353.15 K | – | 1398.52
363.15 K | – | 1389.69
DTA | 329.12 | –
visual observation | 329.62 | –

Conditions | Molar enthalpy of transition or fusion [kcal/mol]
[2] | 10.5
